Laboratory results from publication PMC8070745, “FEN1 Blockade for Platinum Chemo-Sensitization and Synthetic Lethality in Epithelial Ovarian Cancers” (Cancers, 2021).

Experiments:
[1] = target: T1, Recombinant human FEN1 protein (Homo sapiens, UniProt P39748); test: radio-labeled FEN1 cleavage assay; format: biochemical; conditions: 3 nM FEN1, 37 °C, 10 min
T1 construct: made in house

A2780cis cells = test: Clonogenic assay, A2780cis; format: cell-based, human
Method: (§1) Clonogenic assay: In the clonogenic assay (colony formation assays), 32 cells/cm2 were seeded in 6-well plates and left at 37°C in a 5% CO2 atmosphere. Cisplatin (5µM) and/or FEN1i (10µM) and/or Importazole (5 µM, Selleckem, S8446 ) were added at the indicated concentrations and the plates were left at 37 °C in a 5% CO 2 atmosphere for 14 days. Later, the plates were washed with PBS, fixed and stained with a crystal violet, acetic acid and methanol solution and colonies were counted. […]

PEO4 cells [2] = test: Clonogenic assay, PEO4; format: cell-based, human
Method: as §1

PEO1 cells = test: Clonogenic assay, PEO1; format: cell-based, human
Method: as §1

PEO1R cells = test: Clonogenic assay, PEO1R; format: cell-based, human; conditions: vs parental PEO1 cells
Method: as §1

[3] = test system: XRCC1 deficient A2780cis cells; test: FEN1 inhibitor cytotoxicity, XRCC1 deficient A2780cis; format: cell-based, human; conditions: vs A2780cis control
PEO4 cells [4] = test: Cell cycle progression, PEO4; format: cell-based, human; conditions: FEN1i plus cisplatin
Method: (§2) with ice cold PBS and fixed in 70% ethanol for 1h at -20°C. After removal of the fixative solution by centrifugation, cells were stained with 2 µg/ml of phospho-Histone (γH2AX) Ser139 (16202A, Millipore, UK) to detect DSBs.
(§3) Cell cycle progression: Cells were treated with 20 µg/ml RNase A (12091021, Invitrogen) and then 10 µg/ml Propidium Iodide (P4170, Sigma Aldrich) was added to determine the cell cycle distribution. The samples were analysed on a Beckman-Coulter FC500 flow cytometer using a 488nm laser for excitation and emission data for PI collected using a 620nm bandpass filter (FL3) and a 525nm bandpass filter (FL1) for FITC-anti-phospho-Histone H2A.X. […]
(§4) Graphical representation and statistical analysis was performed in GraphPad Prism 7 (GraphPad, La Jolla, USA).
(§5) 3D Spheroid assays: A2780_control and A2780 FEN1_ KO as well as A2780cis_control and A2780cis FEN1_ KO cells were seeded at 4500 cells/cm2 density in ultra-low attachment 6-well plates (174932, Thermo Fisher Scientific) and cultured in 3D Tumorsphere Medium (C28070, PromoCell, UK) at 37°C in a 5% CO2 atmosphere. Cells were keep in culture for 7-10 days, toping up with fresh medium every two days until spheroids structures were formed.

PEO1R spheroids = test: 3D spheroid assay, PEO1R; format: cell-based, human; conditions: vs PEO1 spheroids
Method: as §2
Cell cycle progression: Cells were treated with 20 µg/ml RNase A (12091021, Invitrogen) and then 10 µg/ml Propidium Iodide (P4170, Sigma Aldrich) was added to determine the cell cycle distribution. The samples were analysed on a Beckman-Coulter FC500 flow cytometer using a 488nm laser for excitation and emission data for PI collected using a 620nm bandpass filter (FL3) and a 525nm bandpass filter (FL1) for FITC-anti-phospho-Histone H2A.X.
Apoptosis detection: Annexin V detection kit (556547, BD Biosciences) was used to quantify apoptotic cells. Briefly, cells were trypsinized, washed with PBS and the cellular pellet was re-suspended in Anexin Binding Buffer (1×). […] All the samples were analysed on a Beckman-Coulter FC500 flow cytometer. The percentage of apoptotic cells was determined (late apoptotic = FITC-Annexin V positive, PI positive early apoptotic = FITC-Annexin V positive, PI negative; live cells = FITC-Annexin V negative, PI negative) and compared for untreated and treated samples. […]
To quantify cell viability, LIVE/DEAD Viability/Cytotoxicity Kit (L3224, Thermo Fisher Scientific) was used. […] At least 10 spheroids were measured. […]

POLβ KO A2780cis cells = test: Cell cycle progression, POLβ KO A2780cis; format: cell-based, human; conditions: FEN1i-treated
Method: as §2, §3, §4, §5

T1 sequence (P39748 whole entry): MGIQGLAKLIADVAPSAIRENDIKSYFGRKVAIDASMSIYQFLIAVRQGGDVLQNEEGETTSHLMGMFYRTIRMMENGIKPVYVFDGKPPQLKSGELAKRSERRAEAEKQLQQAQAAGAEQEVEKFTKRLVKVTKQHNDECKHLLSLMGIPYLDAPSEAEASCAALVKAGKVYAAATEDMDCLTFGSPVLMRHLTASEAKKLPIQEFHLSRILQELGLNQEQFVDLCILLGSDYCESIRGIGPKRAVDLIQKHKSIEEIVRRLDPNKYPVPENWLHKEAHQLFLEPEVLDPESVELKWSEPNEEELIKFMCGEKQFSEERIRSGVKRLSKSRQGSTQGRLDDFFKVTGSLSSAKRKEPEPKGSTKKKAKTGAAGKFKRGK

With `Cc1csc2c1c(=O)n(O)c(=O)n2-c1ccccc1` [PTPD, 3-hydroxy-5-methyl-1-phenylthieno [2,3 d]pyrimidine-2,4(1H,3H)-dione] the “FEN1 inhibition in cleavage assay” value [1] was “confirmed FEN1 inhibition”, the “cytotoxicity of FEN1i monotherapy” value (A2780cis cells; 10 µM) was “non-toxic” and the “effect on cisplatin cytotoxicity” value (A2780cis cells; FEN1i 10 µM plus cisplatin) was “significantly enhanced the cytotoxicity of cisplatin”. For the same compound, the “effect on cisplatin cytotoxicity” value (PEO4 cells [2]; FEN1i plus cisplatin) was “potentiated cisplatin cytotoxicity”, the “sensitivity to FEN1 inhibitor” value (PEO1 cells; BRCA2 deficient PEO1 vs BRCA2 proficient PEO4) was “more sensitive to FEN1 inhibition in comparison to PEO4 cells” and the “sensitivity to FEN1 inhibitor” value (PEO1R cells) was “resistant”. For the same compound, the “sensitivity to FEN1 inhibitor” value [3] was “did not observe any increased sensitivity”, the cell cycle effect (PEO4 cells [4]) was “G2/M cell cycle arrest” and the “spheroid sensitivity to FEN1 inhibitor” value (PEO1R spheroids) was “resistant”. For the same compound, the cell cycle effect (POLβ KO A2780cis cells) was “G2/M cell cycle arrest”.

For `N.N.[Cl][Pt][Cl]` [cisplatin], the cisplatin sensitivity (A2780cis cells) was “cisplatin-resistant”, the cisplatin sensitivity (PEO4 cells [2]) was “cisplatin resistant” and the cisplatin sensitivity (PEO1 cells) was “cisplatin sensitive”. For the same compound, the sensitivity to cisplatin (PEO1R cells) was “resistant” and the “spheroid sensitivity to cisplatin” value (PEO1R spheroids) was “resistant”.
